Our source for the Ki values is patent US20050234066A1, “Alpha substituted carboxylic acids” (Agouron Pharmaceuticals, Inc., priority 2004, published 2005).

One assay concerns the target T1, PPAR-α (Homo sapiens, UniProt Q07869).
T1 sequence (Q07869 1-468): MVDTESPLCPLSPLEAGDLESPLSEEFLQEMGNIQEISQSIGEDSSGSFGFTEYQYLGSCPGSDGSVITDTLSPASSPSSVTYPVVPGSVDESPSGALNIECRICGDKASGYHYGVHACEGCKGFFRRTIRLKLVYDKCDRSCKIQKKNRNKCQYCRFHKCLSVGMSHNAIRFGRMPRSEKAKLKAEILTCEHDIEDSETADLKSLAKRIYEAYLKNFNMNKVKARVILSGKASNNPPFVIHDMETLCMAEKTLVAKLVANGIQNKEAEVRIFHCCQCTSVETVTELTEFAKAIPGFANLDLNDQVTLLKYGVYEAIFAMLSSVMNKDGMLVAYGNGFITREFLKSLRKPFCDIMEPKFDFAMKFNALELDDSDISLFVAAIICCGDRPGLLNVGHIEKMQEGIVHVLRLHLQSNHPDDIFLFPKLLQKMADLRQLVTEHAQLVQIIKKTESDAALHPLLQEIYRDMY
The assay can be described thus: Scintillation Proximity Assay (SPA), displacement of 3H labeled GW2331. It counts as binding. The following applies: 3H GW2331 displacement, read-out: PPAR-alpha Ki. For orientation: Scintillation proximity formats need no separation of bound from free tracer.

In another assay the target is T2, PPAR-γ (Homo sapiens, UniProt P37231).
T2 sequence (P37231 1-505): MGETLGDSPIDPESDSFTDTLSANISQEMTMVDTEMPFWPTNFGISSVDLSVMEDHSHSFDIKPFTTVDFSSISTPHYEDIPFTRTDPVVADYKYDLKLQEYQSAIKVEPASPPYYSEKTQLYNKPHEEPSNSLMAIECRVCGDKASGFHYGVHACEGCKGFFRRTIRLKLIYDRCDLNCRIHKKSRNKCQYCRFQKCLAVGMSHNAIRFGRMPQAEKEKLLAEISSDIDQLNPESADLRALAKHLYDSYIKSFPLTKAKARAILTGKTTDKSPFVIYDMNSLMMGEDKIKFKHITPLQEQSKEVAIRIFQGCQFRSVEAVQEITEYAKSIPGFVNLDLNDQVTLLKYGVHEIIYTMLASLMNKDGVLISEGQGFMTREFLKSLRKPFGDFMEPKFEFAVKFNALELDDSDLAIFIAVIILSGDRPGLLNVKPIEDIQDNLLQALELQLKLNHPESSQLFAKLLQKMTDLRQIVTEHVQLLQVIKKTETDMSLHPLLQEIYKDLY
The assay can be described thus: Scintillation Proximity Assay (SPA), displacement of 3H labeled darglitazone. It counts as binding. The note with it: 3H darglitazone displacement, read-out: PPAR-gamma Ki.

Structures are written as SMILES.

Source text for PPAR-γ: Scintillatian Proximity Assay (SPA) Assays
In the SPA assay, 3H labeled darglitazone (for PPAR-γ) or GW2331 (for PPAR-α) is bound to the PPAR protein captured on SPA polylysine beads and generates radioactive count signal that can be detected by TopCounts (Packard). The PPAR-bound 3H labeled ligand can be displaced by an unlabeled compound. The Ki of the compound can be then determined by the extent of displacement at various compound concentrations. Reagents: • SPA polylysine beads, which can be purchased from Amersham Bioscience. • H labeled Darglitazone for PPAR-γ. • H labeled GW2331 for PPAR-α. • PPAR proteins. • Buffer—PBS, 10% glycerol, 14 mM beta-mercaptoethanol.

`Cc1oc(-c2cccc(F)c2)nc1CCOc1cccc(-c2cccc(OC(C)(C)C(=O)O)c2)c1` [Example A-21]: the Ki (commonly a measure of affinity in units of concentration, obtained from inhibition or displacement) was determined as 310 nM on PPAR-α and 88 nM on PPAR-γ.
As to `COc1cccc(-c2nc(CCOc3ccc(CC(OC)C(=O)O)cn3)c(C)o2)c1` [Example D-08], the figures for the Ki at PPAR-α and on PPAR-γ were 15 nM and 2 nM, respectively.
For `CCOC(Cc1ccc(OCCc2ccc(OC(F)(F)F)cc2)nc1)C(=O)O` [Example D-20] the same measures were 840 nM and 480 nM.
For `CCC(Oc1cccc(CNC(=O)OCc2nc(-c3ccccc3)oc2C)c1)C(=O)O` (centres unmarked) [Example B-14] the same measures were 21 nM and 2300 nM.
For `Cc1oc(-c2ccccc2)nc1COc1cccc(-c2cccc(OC(C)(C)C(=O)O)c2)c1` [Example A-24] the same measures were 18 nM and 780 nM.
`Cc1oc(-c2ccccc2)nc1CCOc1ccc(CC2(c3nnn[nH]3)CCCO2)cn1` (centres unmarked) [Example C-95, 2-[2-(5-Methyl-2-phenyl-oxazol-4-yl)-ethoxy]-5-[2-(1H-tetrazol-5-yl)-tetrahydro-furan-2-ylmethyl]-pyridine]: the Ki at PPAR-α was found to be 8600 nM; at PPAR-γ, 970 nM.
With `COc1ccc(-c2nc(COc3cccc(-c4cccc(OC5(C(=O)O)CCC5)c4)c3)no2)cc1` [Example A-17], the Ki on PPAR-α is 1600 nM; on PPAR-γ, 1900 nM.
For `Cc1oc(-c2ccccc2)nc1CCOc1ccc(CC2(C(=O)O)CCCCO2)nc1` (centres unmarked) [Example C-57] the same measures were 1800 nM and 1100 nM.
For `COc1ccc(-c2ccc(CCOc3ccc(CC4(C(=O)O)CCC4)cc3)cc2)cn1` [Example C-10] the same measures were 19000 nM and 2100 nM.
For `CCOC(Cc1ccc(OCCc2ccc(OS(C)(=O)=O)cc2)nc1)C(=O)O` [Example D-19] the same measures were 6400 nM and 1700 nM.
Take `Cc1oc(-c2ccccc2)nc1CCOc1ncc(CC2(C(=O)O)CCCO2)cn1` (centres unmarked) [Example C-76]: the Ki on PPAR-α amounted to 7300 nM; at PPAR-γ, 2300 nM.
For `COC(Cc1ccc(OCCc2nc(-c3ccc(Cl)cc3)oc2C)nc1)C(=O)O` [Example D-04] the same measures were 290 nM and 440 nM.
For `Cc1cccc(-c2nc(CCOc3ccc(CC4(C(=O)O)CCCO4)cc3)c(C)o2)c1` (centres unmarked) [Example C-89] the same measures were 30 nM and 40 nM.
With `Cc1oc(-c2cccc(C(F)(F)F)c2)nc1CCOc1ccc(CC2(C(=O)O)CCC2)cc1` [Example C-30], the Ki at PPAR-α came out at 110 nM; at PPAR-γ it was 33 nM.
For `Cc1oc(-c2ccccc2)nc1CCCOc1cccc(-c2cccc(OC(C)(C)C(=O)O)n2)c1` [Example A-13] the same measures were 10000 nM and 3500 nM.
On to `Cc1oc(-c2ccccc2)nc1COC(=O)NCc1cccc(OC(C)(C)C(=O)O)c1` [Example B-06], for which the inhibition constant (Ki) is 130 nM at PPAR-α and 370 nM at PPAR-γ.
For `CS(=O)(=O)c1ccc(-c2ccc(CCOc3ccc(CC4(C(=O)O)CCC4)cc3)cc2)cc1` [Example C-11] the same measures were 25000 nM and 2000 nM.
As for `O=C(O)C1(Cc2ccc(OCCc3ccc(-c4ccc5c(c4)OCC5)cc3)cc2)CCC1` [Example C-12], the Ki at PPAR-α was 9400 nM; on PPAR-γ it was 1600 nM.
For `Cc1oc(-c2ccccc2)nc1CCCOC(=O)NCc1ccc(OC(C)(C)C(=O)O)cc1` [Example B-07] the same measures were 12000 nM and 650 nM.
For `COC(C)(Cc1ccc(OCCc2nc(-c3ccccc3)sc2C)nc1)C(=O)O` [Example D-33], the Ki came out at 550 nM on PPAR-α and 690 nM at PPAR-γ.
For `Cc1onc(-c2ccccc2)c1COc1cccc(-c2cccc(OC3(C(=O)O)CCC3)c2)c1` [Example A-20] the same measures were 140 nM and 180 nM.
Turning to `Cc1oc(-c2ccccc2)nc1COc1ccc(CC2(C(=O)O)CCC2)cc1` [Example C-17], the Ki at PPAR-α is 3200 nM; at PPAR-γ, 26000 nM.
For `Cc1oc(-c2ccccc2)nc1COc1ccc2cc(CC3(C(=O)O)CCCO3)ccc2c1` (centres unmarked) [Example C-93] the same measures were 300 nM and 11 nM.
Consider `O=C(O)C1(Oc2cccc(-c3cccc(OCc4cc(-c5ccccc5)no4)c3)c2)CCC1` [Example A-14], for which the inhibition constant (Ki) on PPAR-α amounted to 150 nM; on PPAR-γ it was 1300 nM.
With `CC(C)(Oc1cccc(COC(=O)NCCc2ccc(C(F)(F)F)cc2)c1)C(=O)O` [Example B-04], the figures for the Ki at PPAR-α and at PPAR-γ were 48000 nM and 1500 nM, respectively.
Consider `Cc1oc(-c2cccc(Cl)c2)nc1CCOc1ccc(CC2(C(=O)O)CCC2)cc1` [Example C-31], for which the Ki on PPAR-α amounted to 93 nM; at PPAR-γ, 26 nM.
For `Cc1oc(-c2ccccc2)nc1CCCOC(=O)NCc1cccc(OC(C)(C)C(=O)O)c1` [Example B-19] the same measures were 340 nM and 740 nM.
For `COC(Cc1ccc(OCCc2nc(-c3ccc(C(F)(F)F)cc3)oc2C)nc1)C(=O)O` [Example D-09] the same measures were 50 nM and 61 nM.
Take `Cc1oc(-c2ccccc2)nc1CCOc1ccc2cc(CC3(C(=O)O)CCCO3)ccc2c1` (centres unmarked) [Example C-91]: the Ki is 1800 nM at PPAR-α and 390 nM at PPAR-γ.
For `Cn1nc(-c2ccccc2)nc1CCOc1cccc(-c2cccc(OC(C)(C)C(=O)O)c2)c1` [Example A-25] the same measures were 4200 nM and 3200 nM.
On to `O=C(O)C1(Cc2ccc(OCCc3ccc(-c4ccc(F)cc4)cc3)cc2)CCC1` [Example C-07], for which the results for the Ki at PPAR-α and on PPAR-γ were 22000 nM and 11000 nM, respectively.
For `CCOC(Cc1ccc(OCCc2nc(-c3ccc(Cl)cc3)oc2C)nc1)C(=O)O` [Example D-15] the same measures were 220 nM and 350 nM.
For `CC(C)(Oc1cccc(-c2cccc(OCCCOCc3ccccc3)c2)c1)C(=O)O` [Example A-27], the Ki on PPAR-α amounted to 1300 nM; on PPAR-γ it was 2400 nM.
For `CCOC(Cc1cccc(CNC(=O)OCCCc2nc(-c3ccccc3)oc2C)c1)C(=O)O` (centres unmarked) [Example B-23] the same measures were 2700 nM and 3400 nM.
For `Cc1oc(-c2ccc(C(F)(F)F)cc2)nc1CCOc1ccc(CC2(C(=O)O)CCC2)cc1` [Example C-33] the same measures were 10 nM and 50 nM.
`Cc1ccc(N2CCC(CCOc3cccc(-c4cccc(OC(C)(C)C(=O)O)c4)c3)CC2)nn1` [Example A-03, 2-Methyl-2-[(3′-{2-[1-(6-methylpyridazin-3-yl)piperidin-4-yl]ethoxy}1,1′-biphenyl-3-yl)oxy]propanoic acid]: the values for the Ki at PPAR-α and on PPAR-γ were 19000 nM and 10000 nM, respectively.
Turning to `COc1ccc(-c2nc(CCOc3ccc(CC(OC)C(=O)O)cn3)c(C)o2)cc1` [Example D-07], the values for the Ki on PPAR-α and at PPAR-γ were 320 nM and 17 nM, respectively.
For `Cc1oc(-c2ccc(Cl)cc2)nc1CCOc1ccc(CC2(C(=O)O)CCC2)cc1` [Example C-27] the same measures were 15 nM and 26 nM.
With `COC(C)(Cc1ccc(OCCc2nc(-c3cccc(F)c3)oc2C)nc1)C(=O)O` [Example D-42], the Ki at PPAR-α was 1000 nM; on PPAR-γ it was 700 nM.
For `CCOC(Cc1cccc(CNC(=O)OCc2nc(-c3ccccc3)oc2C)c1)C(=O)O` (centres unmarked) [Example B-22] the same measures were 460 nM and 150 nM.
